One experiment concerns the target Cytochrome P450 2D6 (Homo sapiens, UniProt P10635).
For a further experiment, the target named is T1, Cytochrome P450 1A2 (Homo sapiens, UniProt P05177).
T1 sequence (P05177 whole entry): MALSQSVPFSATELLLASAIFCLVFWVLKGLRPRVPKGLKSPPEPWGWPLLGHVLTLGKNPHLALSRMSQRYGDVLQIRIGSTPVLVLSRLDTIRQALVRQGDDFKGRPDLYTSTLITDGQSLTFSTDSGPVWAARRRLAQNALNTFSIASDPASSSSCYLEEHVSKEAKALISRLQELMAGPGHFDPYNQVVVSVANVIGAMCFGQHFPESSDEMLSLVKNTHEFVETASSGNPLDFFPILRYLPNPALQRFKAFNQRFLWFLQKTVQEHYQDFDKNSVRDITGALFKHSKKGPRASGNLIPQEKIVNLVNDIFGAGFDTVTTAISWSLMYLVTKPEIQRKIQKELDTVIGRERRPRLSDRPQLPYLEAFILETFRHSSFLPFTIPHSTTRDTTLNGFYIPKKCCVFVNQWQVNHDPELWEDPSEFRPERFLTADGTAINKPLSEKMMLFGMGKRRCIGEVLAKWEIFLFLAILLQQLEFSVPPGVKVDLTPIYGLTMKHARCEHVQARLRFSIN

The results in this text go back to ChEMBL document CHEMBL1909046, “DrugMatrix in vitro pharmacology data”.

Chain of Cytochrome P450 2D6 (P10635 whole entry): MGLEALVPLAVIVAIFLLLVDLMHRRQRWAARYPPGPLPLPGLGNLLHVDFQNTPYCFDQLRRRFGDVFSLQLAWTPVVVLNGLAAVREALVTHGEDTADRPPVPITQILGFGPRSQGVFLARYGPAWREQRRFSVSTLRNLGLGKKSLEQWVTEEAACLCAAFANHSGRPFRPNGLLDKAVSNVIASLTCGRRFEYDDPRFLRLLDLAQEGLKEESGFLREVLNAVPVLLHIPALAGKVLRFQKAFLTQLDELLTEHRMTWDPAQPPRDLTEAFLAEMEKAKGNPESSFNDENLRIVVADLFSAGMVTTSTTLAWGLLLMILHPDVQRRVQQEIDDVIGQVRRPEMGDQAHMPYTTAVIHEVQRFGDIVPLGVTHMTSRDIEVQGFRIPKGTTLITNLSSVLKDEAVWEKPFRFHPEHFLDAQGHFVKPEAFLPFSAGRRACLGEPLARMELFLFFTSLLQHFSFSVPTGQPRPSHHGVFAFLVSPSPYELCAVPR

For the molecule `Clc1ccc2c(c1)C(N1CCNCC1)=Nc1ccccc1O2` [AMOXAPINE], the IC50 against Cytochrome P450 2D6 came out at 10 µM.
At Cytochrome P450 1A2, `CC(C)NCC(O)COc1cccc2ccccc12` (configuration not stated) [PROPRANOLOL] showed a concentration for half-maximal inhibition (IC50) of 4 µM.
